One experiment concerns MCF7 cells. The experiment in a line: Anti-proliferation (viability) of MCF7 cells (Table 7, FIG. 2B). The class given is cell-based. The settings on record: Homo sapiens, MCF7, MCF7 cells, 3-6 days, 10-point serial dilution; read-out: GI IC50 in MCF-7.
The next experiment deals with CDK4 (Homo sapiens, UniProt P11802+Q16531). The experiment is described as follows: CDK4 percentage degradation in Calu-1 cells (Table 6). Type of experiment: cell-based. Details: Cells that express cyclin D1-3 and CDK4/6 proteins were treated with heterobifunctional compounds; endogenous in cells; host or cells: Calu-1. The settings on record: 16 hours; for inhibition at 0.04 µM: 40 nM; for inhibition at 0.2 µM: 200 nM. An outline of the steps: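 Percentage degradation of Cyclin D1 and CDK4 derived from densitometry of ECL Western blots on lysates of Calu-1 cells. Treatment was 16 h with compound at either 40 nM or 200 nM.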
Sequence of CDK4 (P11802 2-303 limits assumed): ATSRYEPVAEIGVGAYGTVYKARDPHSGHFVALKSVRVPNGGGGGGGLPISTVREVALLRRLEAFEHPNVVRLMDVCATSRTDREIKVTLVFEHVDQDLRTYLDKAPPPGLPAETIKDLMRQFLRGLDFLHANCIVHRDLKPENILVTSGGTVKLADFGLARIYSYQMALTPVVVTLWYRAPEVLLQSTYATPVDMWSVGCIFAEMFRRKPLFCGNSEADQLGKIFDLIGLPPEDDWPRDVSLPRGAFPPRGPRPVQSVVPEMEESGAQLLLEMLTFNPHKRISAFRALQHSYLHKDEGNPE
Sequence of CDK4 (P24385 whole entry partner): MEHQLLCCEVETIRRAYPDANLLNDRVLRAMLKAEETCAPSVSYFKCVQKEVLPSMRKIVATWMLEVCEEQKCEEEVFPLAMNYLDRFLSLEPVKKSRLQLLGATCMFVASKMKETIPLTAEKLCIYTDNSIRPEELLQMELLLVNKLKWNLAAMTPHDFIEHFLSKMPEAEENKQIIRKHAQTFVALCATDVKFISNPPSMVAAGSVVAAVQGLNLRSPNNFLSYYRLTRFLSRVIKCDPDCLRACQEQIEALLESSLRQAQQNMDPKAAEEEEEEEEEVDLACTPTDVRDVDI
Sequence of CDK4 (Q16531 2-1140 limits assumed): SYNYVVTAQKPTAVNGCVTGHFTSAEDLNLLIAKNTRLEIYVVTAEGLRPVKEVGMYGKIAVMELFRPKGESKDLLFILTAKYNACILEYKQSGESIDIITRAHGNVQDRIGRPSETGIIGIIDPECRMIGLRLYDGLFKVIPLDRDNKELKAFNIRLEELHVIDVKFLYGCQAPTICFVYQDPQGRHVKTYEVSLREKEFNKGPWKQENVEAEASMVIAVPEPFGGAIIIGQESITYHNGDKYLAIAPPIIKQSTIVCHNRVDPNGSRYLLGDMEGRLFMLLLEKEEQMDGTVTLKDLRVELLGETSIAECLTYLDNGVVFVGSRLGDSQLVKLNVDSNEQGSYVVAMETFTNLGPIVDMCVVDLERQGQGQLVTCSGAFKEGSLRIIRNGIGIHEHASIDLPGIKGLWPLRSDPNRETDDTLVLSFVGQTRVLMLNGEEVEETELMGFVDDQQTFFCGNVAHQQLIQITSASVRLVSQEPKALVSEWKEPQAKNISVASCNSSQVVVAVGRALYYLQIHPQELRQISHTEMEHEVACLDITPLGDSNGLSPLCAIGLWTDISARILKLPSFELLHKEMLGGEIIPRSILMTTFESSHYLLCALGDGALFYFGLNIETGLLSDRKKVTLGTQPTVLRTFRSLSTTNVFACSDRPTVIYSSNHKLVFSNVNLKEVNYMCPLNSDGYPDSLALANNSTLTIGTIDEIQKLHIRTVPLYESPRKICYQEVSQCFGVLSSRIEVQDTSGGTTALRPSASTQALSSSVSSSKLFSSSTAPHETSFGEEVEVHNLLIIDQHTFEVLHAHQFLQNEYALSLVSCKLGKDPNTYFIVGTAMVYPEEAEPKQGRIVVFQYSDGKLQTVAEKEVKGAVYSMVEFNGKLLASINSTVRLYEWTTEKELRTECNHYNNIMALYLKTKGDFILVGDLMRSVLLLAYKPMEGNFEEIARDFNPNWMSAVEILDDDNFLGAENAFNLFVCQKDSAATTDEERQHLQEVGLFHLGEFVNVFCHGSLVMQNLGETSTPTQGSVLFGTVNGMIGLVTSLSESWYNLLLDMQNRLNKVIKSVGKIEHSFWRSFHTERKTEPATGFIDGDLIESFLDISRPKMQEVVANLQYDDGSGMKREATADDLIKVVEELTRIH

As usually defined, the pIC50 is the negative decadic logarithm of the IC50, by convention in mol/L. As usually defined, the inhibition is the share of the control response that was lost under treatment.

pIC50: −log10 of the molar value.

As for `CNc1ccc(C(=O)Nc2ccc(F)c(C)n2)c(NC2CC3(CC(NC(=O)CN4CCN(c5ccc(Nc6ncc7c(C)c(C(C)=O)c(=O)n(C8CCCC8)c7n6)nc5)CC4)C3)C2)n1` (centres unmarked) [CPD-221, 2-((6-(2-(4-(6-((6-acetyl-8-cyclopentyl-5-methyl-7-oxo-7,8-dihydropyrido[2,3-d]pyrimidin-2-yl)amino)pyridin-3-yl)piperazin-1-yl)acetamido)spiro[3.3]heptan-2-yl)amino)-N-(5-fluoro-6-methylpyridin-2-yl)-6-(methylamino)nicotinamide], the pIC50 with MCF7 cells was below 7.00. On CDK4, this compound returned an inhibition at 0.04 µM of 50 to 80% and an inhibition at 0.2 µM of 50 to 80%.

Regarding `CNc1ccc(C(=O)Nc2ccc(N(C)C)nn2)c(NC2CCN(C(=O)C3CC34CCN(c3ccc(Nc5ncc6c(C)c(C(C)=O)c(=O)n(C7CCCC7)c6n5)nc3)CC4)CC2)n1` (centres unmarked) [CPD-328, 2-((1-(6-(6-((6-acetyl-8-cyclopentyl-5-methyl-7-oxo-7,8-dihydropyrido[2,3-d]pyrimidin-2-yl)amino)pyridin-3-yl)-6-azaspiro[2.5]octane-1-carbonyl)piperidin-4-yl)amino)-N-(6-(dimethylamino)pyridazin-3-yl)-6-(methylamino)nicotinamide], in the experiment on MCF7 cells, the negative-log IC50 (pIC50) was above 7.30. Moreover, at CDK4, the inhibition at 0.04 µM is below 30% and the inhibition at 0.2 µM was below 30%.

Turning to `CC(=O)c1c(C)c2cnc(Nc3ccc(CN4CCN(CC(=O)N5CCC(Nc6nc(NC(C)C)ccc6C(=O)Nc6ccc(N(C)C)nn6)CC5)CC4)cn3)nc2n(C2CCCC2)c1=O` [CPD-358, 2-((1-(2-(4-((6-((6-acetyl-8-cyclopentyl-5-methyl-7-oxo-7,8-dihydropyrido[2,3-d]pyrimidin-2-yl)amino)pyridin-3-yl)methyl)piperazin-1-yl)acetyl)piperidin-4-yl)amino)-N-(6-(dimethylamino)pyridazin-3-yl)-6-(isopropylamino)nicotinamide], in the experiment on MCF7 cells, the pIC50 is 7.00 to 7.30. On CDK4, this compound came in with an inhibition at 0.04 µM below 30% and an inhibition at 0.2 µM below 30%.

For `CNc1ccc(C(=O)Nc2ccc(N(C)C)nn2)c(N[C@H]2CC[C@H](NC(=O)CCN3CCN(c4ccc(Nc5ncc6c(C)c(C(C)=O)c(=O)n(C7CCCC7)c6n5)nc4)CC3)CC2)n1` [CPD-223, 2-((trans-4-(3-(4-(6-((6-acetyl-8-cyclopentyl-5-methyl-7-oxo-7,8-dihydropyrido[2,3-d]pyrimidin-2-yl)amino)pyridin-3-yl)piperazin-1-yl)propanamido)cyclohexyl)amino)-N-(6-(dimethylamino)pyridazin-3-yl)-6-(methylamino)nicotinamide], the pIC50 in the experiment on MCF7 cells was 7.00 to 7.30. At CDK4, this compound had an inhibition at 0.04 µM of 50 to 80% and an inhibition at 0.2 µM of 50 to 80%.

For `[2H]C([2H])([2H])Nc1ccc(C(=O)Nc2ccc(N(C)C)nn2)c(NC2CC3(CC(NC(=O)CN4CCN(c5ccc(Nc6ncc7c(C)c(C(C)=O)c(=O)n(C8CCCC8)c7n6)nc5)CC4)C3)C2)n1` (centres unmarked) [CPD-241, 2-((6-(2-(4-(6-((6-acetyl-8-cyclopentyl-5-methyl-7-oxo-7,8-dihydropyrido[2,3-d]pyrimidin-2-yl)amino)pyridin-3-yl)piperazin-1-yl)acetamido)spiro[3.3]heptan-2-yl)amino)-N-(6-(dimethylamino)pyridazin-3-yl)-6-((methyl-d3)amino)nicotinamide], in the experiment with MCF7 cells, the pIC50 was 7.00 to 7.30. In addition, on CDK4, the inhibition at 0.04 µM lay in the range of 50 to 80% and the inhibition at 0.2 µM fell in the range of 50 to 80%.

`CC(=O)c1c(C)c2cnc(Nc3ccc(N4CCN(C5CCN(C(=O)C6CC(Nc7nc(NC(C)C)ccc7C(=O)Nc7ccc(N(C)C)nn7)C6)C5)CC4)cn3)nc2n(C2CCCC2)c1=O` (centres unmarked) [CPD-402, 2-((3-(3-(4-(6-((6-acetyl-8-cyclopentyl-5-methyl-7-oxo-7,8-dihydropyrido[2,3-d]pyrimidin-2-yl)amino)pyridin-3-yl)piperazin-1-yl)pyrrolidine-1-carbonyl)cyclobutyl)amino)-N-(6-(dimethylamino)pyridazin-3-yl)-6-(isopropylamino)nicotinamide]: in the experiment on MCF7 cells, the pIC50 was 7.00 to 7.30. Moreover, on CDK4, the inhibition at 0.04 µM is below 30% and the inhibition at 0.2 µM was below 30%.

For the compound `[2H]C([2H])([2H])Nc1ccc(C(=O)Nc2ccc(N(C)C)nn2)c(NC2CC3(C2)CN(C(=O)CC(C)N2CCN(c4ccc(Nc5ncc6c(C)c(C(C)=O)c(=O)n(C7CCCC7)c6n5)nc4)CC2)C3)n1` (centres unmarked) [CPD-341, 2-((2-(3-(4-(6-((6-acetyl-8-cyclopentyl-5-methyl-7-oxo-7,8-dihydropyrido[2,3-d]pyrimidin-2-yl)amino)pyridin-3-yl)piperazin-1-yl)butanoyl)-2-azaspiro[3.3]heptan-6-yl)amino)-N-(6-(dimethylamino)pyridazin-3-yl)-6-((methyl-d3)amino)nicotinamide], the pIC50 in the experiment on MCF7 cells is above 7.30. On CDK4, this compound returned an inhibition at 0.04 µM below 30% and an inhibition at 0.2 µM below 30%.

With `CNc1ccc(C(=O)Nc2ccc(N(C)C)nn2)c(NC2CC(n3cc(CN4CCN(c5ccc(Nc6ncc7c(C)c(C(C)=O)c(=O)n(C8CCCC8)c7n6)nc5)CC4)nn3)C2)n1` (centres unmarked) [CPD-335, 2-((3-(4-((4-(6-((6-acetyl-8-cyclopentyl-5-methyl-7-oxo-7,8-dihydropyrido[2,3-d]pyrimidin-2-yl)amino)pyridin-3-yl)piperazin-1-yl)methyl)-1H-1,2,3-triazol-1-yl)cyclobutyl)amino)-N-(6-(dimethylamino)pyridazin-3-yl)-6-(methylamino)nicotinamide], in the experiment with MCF7 cells, the pIC50 is below 7.00.

Regarding `CC(=O)c1c(C)c2cnc(Nc3ccc(N4CCN(CC(=O)NC(C)C5CC(Nc6nc(NC(C)C)ccc6C(=O)Nc6cc(C)on6)C5)CC4)cn3)nc2n(C2CCCC2)c1=O` (centres unmarked) [CPD-377, 2-((3-(1-(2-(4-(6-((6-acetyl-8-cyclopentyl-5-methyl-7-oxo-7,8-dihydropyrido[2,3-d]pyrimidin-2-yl)amino)pyridin-3-yl)piperazin-1-yl)acetamido)ethyl)cyclobutyl)amino)-6-(isopropylamino)-N-(5-methylisoxazol-3-yl)nicotinamide], the pIC50 in the experiment on MCF7 cells is 7.00 to 7.30.

For the compound `CNc1ccc(C(=O)Nc2ccc(N(C)C)nn2)c(NC2CC(OC(=O)N3CCN(c4ccc(Nc5ncc6c(C)c(C(C)=O)c(=O)n(C7CCCC7)c6n5)nc4)CC3)C2)n1` (centres unmarked) [CPD-311, 3-((3-((6-(dimethylamino)pyridazin-3-yl)carbamoyl)-6-(methylamino)pyridin-2-yl)amino)cyclobutyl 4-(6-((6-acetyl-8-cyclopentyl-5-methyl-7-oxo-7,8-dihydropyrido[2,3-d]pyrimidin-2-yl)amino)pyridin-3-yl)piperazine-1-carboxylate], the pIC50 with MCF7 cells is below 7.00.

On to `CNc1ccc(C(=O)Nc2ccc(N(C)C)nn2)c(NC2CC3(C2)CC(C(=O)NC2CC4(CCN(c5ccc(Nc6ncc7c(C)c(C(C)=O)c(=O)n(C8CCCC8)c7n6)nc5)CC4)C2)C3)n1` (centres unmarked) [CPD-374, 2-((6-((7-(6-((6-acetyl-8-cyclopentyl-5-methyl-7-oxo-7,8-dihydropyrido[2,3-d]pyrimidin-2-yl)amino)pyridin-3-yl)-7-azaspiro[3.5]nonan-2-yl)carbamoyl)spiro[3.3]heptan-2-yl)amino)-N-(6-(dimethylamino)pyridazin-3-yl)-6-(methylamino)nicotinamide], for which the pIC50 in the experiment on MCF7 cells was below 7.00.

With `CNc1ccc(C(=O)Nc2cn(C)c(C3CCC3)n2)c(NC2CC3(CC(NC(=O)CN4CCN(c5ccc(Nc6ncc7c(C)c(C(C)=O)c(=O)n(C8CCCC8)c7n6)nc5)CC4)C3)C2)n1` (centres unmarked) [CPD-310, 2-((6-(2-(4-(6-((6-acetyl-8-cyclopentyl-5-methyl-7-oxo-7,8-dihydropyrido[2,3-d]pyrimidin-2-yl)amino)pyridin-3-yl)piperazin-1-yl)acetamido)spiro[3.3]heptan-2-yl)amino)-N-(2-cyclobutyl-1-methyl-1H-imidazol-4-yl)-6-(methylamino)nicotinamide], the pIC50 in the experiment on MCF7 cells is below 7.00.

In the case of `CNc1ccc(C(=O)Nc2ccc(N(C)C)nn2)c(NC2CC(C(=O)NC3CC4(CCN(c5ccc(Nc6ncc7c(C)c(C(C)=O)c(=O)n(C8CCCC8)c7n6)nc5)CC4)C3)C2)n1` (centres unmarked) [CPD-375, 2-((3-((7-(6-((6-acetyl-8-cyclopentyl-5-methyl-7-oxo-7,8-dihydropyrido[2,3-d]pyrimidin-2-yl)amino)pyridin-3-yl)-7-azaspiro[3.5]nonan-2-yl)carbamoyl)cyclobutyl)amino)-N-(6-(dimethylamino)pyridazin-3-yl)-6-(methylamino)nicotinamide], the negative logarithm of the IC50 (pIC50) with MCF7 cells was below 7.00.

`CNc1ccc(C(=O)Nc2ccc(N(C)C)nn2)c(NC2CC3(C2)CN(C(=O)CCN2CCN(c4ccc(Nc5ncc6c(C)c(C(C)=O)c(=O)n(C7CCCC7)c6n5)nc4)CC2(C)C)C3)n1` [CPD-267, 2-((2-(3-(4-(6-((6-acetyl-8-cyclopentyl-5-methyl-7-oxo-7,8-dihydropyrido[2,3-d]pyrimidin-2-yl)amino)pyridin-3-yl)-2,2-dimethylpiperazin-1-yl)propanoyl)-2-azaspiro[3.3]heptan-6-yl)amino)-N-(6-(dimethylamino)pyridazin-3-yl)-6-(methylamino)nicotinamide]: the pIC50 in the experiment on MCF7 cells is above 7.30.

In the case of `CCCNc1ccc(C(=O)Nc2cn(C)c(C3CC3)n2)c(NC2CC3(CC(NC(=O)CN4CCN(c5ccc(Nc6ncc7c(C)c(C(C)=O)c(=O)n(C8CCCC8)c7n6)nc5)CC4)C3)C2)n1` (centres unmarked) [CPD-298, 2-((6-(2-(4-(6-((6-acetyl-8-cyclopentyl-5-methyl-7-oxo-7,8-dihydropyrido[2,3-d]pyrimidin-2-yl)amino)pyridin-3-yl)piperazin-1-yl)acetamido)spiro[3.3]heptan-2-yl)amino)-N-(2-cyclopropyl-1-methyl-1H-imidazol-4-yl)-6-(propylamino)nicotinamide], in the experiment on MCF7 cells, the pIC50 was below 7.00.

(Values after US20260297081A1, “COMPOUNDS AND METHODS OF TREATING CANCERS” (Cullgen Inc., priority 2023, published 2026).)
